The record followed here is ChEMBL document CHEMBL1142358, “3-amino-benzo[d]isoxazoles as novel multitargeted inhibitors of receptor tyrosine kinases” (J Med Chem, 2008).

For data set [1], the target named is Mast/stem cell growth factor receptor Kit (Homo sapiens, UniProt P10721). In words: Inhibition of KIT by HTRF assay.
The target of data set [2] is Macrophage colony-stimulating factor 1 receptor (Homo sapiens, UniProt P07333). In words: Inhibition of CSF1R by HTRF assay.
Data set [3] has as its target T1, Receptor-type tyrosine-protein kinase FLT3 (Homo sapiens, UniProt P36888).
T1 sequence (P36888 whole entry): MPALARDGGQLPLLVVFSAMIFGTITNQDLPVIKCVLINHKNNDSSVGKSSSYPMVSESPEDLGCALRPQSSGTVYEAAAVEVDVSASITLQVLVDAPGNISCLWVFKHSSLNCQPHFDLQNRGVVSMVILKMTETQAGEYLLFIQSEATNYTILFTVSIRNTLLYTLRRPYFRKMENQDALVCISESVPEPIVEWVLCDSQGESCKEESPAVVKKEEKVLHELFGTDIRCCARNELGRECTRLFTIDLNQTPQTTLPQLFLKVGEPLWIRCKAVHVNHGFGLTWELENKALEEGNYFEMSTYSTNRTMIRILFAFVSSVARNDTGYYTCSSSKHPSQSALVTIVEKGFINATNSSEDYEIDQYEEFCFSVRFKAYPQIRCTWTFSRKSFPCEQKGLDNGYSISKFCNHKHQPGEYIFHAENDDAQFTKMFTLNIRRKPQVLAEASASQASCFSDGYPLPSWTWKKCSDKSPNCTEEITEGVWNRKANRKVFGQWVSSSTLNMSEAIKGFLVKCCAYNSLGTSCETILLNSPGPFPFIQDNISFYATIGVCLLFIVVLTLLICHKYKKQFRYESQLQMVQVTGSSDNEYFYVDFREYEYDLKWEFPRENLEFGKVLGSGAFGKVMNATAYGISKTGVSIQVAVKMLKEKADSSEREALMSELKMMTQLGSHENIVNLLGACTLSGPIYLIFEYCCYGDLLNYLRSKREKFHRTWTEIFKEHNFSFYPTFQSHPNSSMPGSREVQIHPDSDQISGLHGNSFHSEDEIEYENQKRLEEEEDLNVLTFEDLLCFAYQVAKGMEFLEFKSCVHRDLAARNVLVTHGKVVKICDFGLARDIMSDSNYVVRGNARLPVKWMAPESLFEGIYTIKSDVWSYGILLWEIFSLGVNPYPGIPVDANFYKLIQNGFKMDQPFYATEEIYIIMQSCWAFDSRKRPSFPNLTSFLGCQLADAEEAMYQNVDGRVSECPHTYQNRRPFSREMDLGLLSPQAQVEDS
Description: Inhibition of FLT3 by HTRF assay

The nature of data set [4]: AUC in mouse at 10 mg/kg, po. Type of data set: ADME, organism-based. Further details: dose 10 mg/kg, route oral. The note with it: plasma.
In the next data set the target is Angiopoietin-1 receptor (Homo sapiens, UniProt Q02763). In words: Inhibition of TIE2 by HTRF assay. (Time-resolved FRET reads energy transfer from a long-lived donor to a nearby acceptor.)
Data set [5] is described as follows: Half life in mouse at 1 mg/kg, iv. The class given is ADME, organism-based. On the set-up: dose 1 mg/kg, route intravenous. As to conditions: in vivo.
For another data set, the system named is Mus musculus. In words: Inhibition of estradiol-induced uterine edema in orally dosed BALB/c mouse edema model. Type of data set: functional. The note with it: po.
Data set [6] can be described thus: Inhibition of FGFR by HTRF assay.
For data set [7], the target named is Proto-oncogene tyrosine-protein kinase Src (Homo sapiens, UniProt P12931). In words: Inhibition of SRC by HTRF assay.
Data set [8] in a line: Volume of distribution in mouse at 1 mg/kg, iv. Type of data set: ADME, organism-based. On the set-up: dose 1 mg/kg, route intravenous. As to conditions: in vivo.
The nature of data set [9]: Clearance in mouse at 1 mg/kg, iv. The note with it: in vivo. On the set-up: dose 1 mg/kg, route intravenous. The class given is ADME, organism-based.
For data set [10], the target named is Vascular endothelial growth factor receptor 1 (Homo sapiens, UniProt P17948). Kind of data set: Inhibition of FLT1 by HTRF assay.
The nature of data set [11]: Oral bioavailability in mouse at 10 mg/kg. The class given is ADME, organism-based. The note with it: in vivo.
A short description of data set [12]: AUC (0 to 24 hrs) in mouse plasma at 10 mg/kg/day. The class given is ADME, organism-based. On the set-up: time < 24 hr, dose 10 mg/kg/day.
Data set [13] concerns the target Platelet-derived growth factor receptor beta (Homo sapiens, UniProt P09619). In words: Inhibition of PDGFRbeta by HTRF assay.
In data set [14] the target is Tyrosine-protein kinase Lyn (Homo sapiens, UniProt P07948). In words: Inhibition of LYN by HTRF assay.
For data set [15], the target named is Tyrosine-protein kinase HCK (Homo sapiens, UniProt P08631). Kind of data set: Inhibition of HCK by HTRF assay.
Data set [16] relates to HT-1080. In words: Inhibition of tumor growth in human HT1080 cells xenografted in SCID/Beige mouse at 10 mg/kg/day, bid relative to control. The note with it: read-out: TGI. Type of data set: functional. (Xenograft models place foreign cells or tissue in a host animal.)
Data set [17] is described as follows: Clearance in mouse at 3 mg/kg, iv. Further details: dose 3 mg/kg, route intravenous. Type of data set: ADME, organism-based. As to conditions: in vivo.
A short description of data set [18]: Volume of distribution in mouse at 3 mg/kg, iv. The class given is ADME, organism-based. Further details: dose 3 mg/kg, route intravenous. As to conditions: in vivo.
Data set [19] concerns HT-1080. In words: Inhibition of tumor growth in human HT1080 cells xenografted in SCID/Beige mouse at 30 mg/kg/day, bid relative to control. The note with it: HT-1080, read-out: TGI.
Data set [20] is described as follows: AUC (0 to 24 hrs) in mouse plasma at 30 mg/kg/day. The class given is ADME, organism-based. On the set-up: dose 30 mg/kg/day, time < 24 hr.
Data set [21] can be described thus: Half life in mouse at 3 mg/kg, iv. The class given is ADME, organism-based. Further details: dose 3 mg/kg, route intravenous. The note with it: in vivo.

Some results are limits rather than exact numbers.

Tyrosine-protein kinase Lyn, sequence (P07948 whole entry): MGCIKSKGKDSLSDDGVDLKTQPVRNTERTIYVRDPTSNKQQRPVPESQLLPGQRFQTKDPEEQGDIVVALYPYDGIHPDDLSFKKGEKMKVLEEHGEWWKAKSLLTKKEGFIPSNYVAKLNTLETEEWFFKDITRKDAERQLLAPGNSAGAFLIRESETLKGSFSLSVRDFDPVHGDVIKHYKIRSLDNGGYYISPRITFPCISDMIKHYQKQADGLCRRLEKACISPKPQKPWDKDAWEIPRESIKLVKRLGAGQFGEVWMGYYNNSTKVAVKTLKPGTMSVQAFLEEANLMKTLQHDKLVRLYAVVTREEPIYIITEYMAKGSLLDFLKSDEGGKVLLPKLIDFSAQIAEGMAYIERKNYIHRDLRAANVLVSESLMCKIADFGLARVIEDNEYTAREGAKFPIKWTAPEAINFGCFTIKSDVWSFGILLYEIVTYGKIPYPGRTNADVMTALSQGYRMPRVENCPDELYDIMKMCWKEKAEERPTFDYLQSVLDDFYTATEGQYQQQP
Tyrosine-protein kinase HCK, sequence (P08631 whole entry): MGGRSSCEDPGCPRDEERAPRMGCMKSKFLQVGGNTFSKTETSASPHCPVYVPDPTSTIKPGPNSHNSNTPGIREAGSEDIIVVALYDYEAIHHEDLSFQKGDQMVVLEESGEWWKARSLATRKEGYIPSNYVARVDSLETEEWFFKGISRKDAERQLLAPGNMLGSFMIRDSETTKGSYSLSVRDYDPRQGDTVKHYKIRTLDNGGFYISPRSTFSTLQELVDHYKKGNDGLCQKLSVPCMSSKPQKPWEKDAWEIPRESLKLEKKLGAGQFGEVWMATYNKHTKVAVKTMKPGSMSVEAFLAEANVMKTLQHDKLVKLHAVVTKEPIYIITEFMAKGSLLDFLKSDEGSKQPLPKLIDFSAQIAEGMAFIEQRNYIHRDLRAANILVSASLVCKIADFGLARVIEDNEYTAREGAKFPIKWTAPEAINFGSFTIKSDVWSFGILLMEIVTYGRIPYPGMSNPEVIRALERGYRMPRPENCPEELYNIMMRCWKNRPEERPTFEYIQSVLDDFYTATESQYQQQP
Vascular endothelial growth factor receptor 1, sequence (P17948 whole entry): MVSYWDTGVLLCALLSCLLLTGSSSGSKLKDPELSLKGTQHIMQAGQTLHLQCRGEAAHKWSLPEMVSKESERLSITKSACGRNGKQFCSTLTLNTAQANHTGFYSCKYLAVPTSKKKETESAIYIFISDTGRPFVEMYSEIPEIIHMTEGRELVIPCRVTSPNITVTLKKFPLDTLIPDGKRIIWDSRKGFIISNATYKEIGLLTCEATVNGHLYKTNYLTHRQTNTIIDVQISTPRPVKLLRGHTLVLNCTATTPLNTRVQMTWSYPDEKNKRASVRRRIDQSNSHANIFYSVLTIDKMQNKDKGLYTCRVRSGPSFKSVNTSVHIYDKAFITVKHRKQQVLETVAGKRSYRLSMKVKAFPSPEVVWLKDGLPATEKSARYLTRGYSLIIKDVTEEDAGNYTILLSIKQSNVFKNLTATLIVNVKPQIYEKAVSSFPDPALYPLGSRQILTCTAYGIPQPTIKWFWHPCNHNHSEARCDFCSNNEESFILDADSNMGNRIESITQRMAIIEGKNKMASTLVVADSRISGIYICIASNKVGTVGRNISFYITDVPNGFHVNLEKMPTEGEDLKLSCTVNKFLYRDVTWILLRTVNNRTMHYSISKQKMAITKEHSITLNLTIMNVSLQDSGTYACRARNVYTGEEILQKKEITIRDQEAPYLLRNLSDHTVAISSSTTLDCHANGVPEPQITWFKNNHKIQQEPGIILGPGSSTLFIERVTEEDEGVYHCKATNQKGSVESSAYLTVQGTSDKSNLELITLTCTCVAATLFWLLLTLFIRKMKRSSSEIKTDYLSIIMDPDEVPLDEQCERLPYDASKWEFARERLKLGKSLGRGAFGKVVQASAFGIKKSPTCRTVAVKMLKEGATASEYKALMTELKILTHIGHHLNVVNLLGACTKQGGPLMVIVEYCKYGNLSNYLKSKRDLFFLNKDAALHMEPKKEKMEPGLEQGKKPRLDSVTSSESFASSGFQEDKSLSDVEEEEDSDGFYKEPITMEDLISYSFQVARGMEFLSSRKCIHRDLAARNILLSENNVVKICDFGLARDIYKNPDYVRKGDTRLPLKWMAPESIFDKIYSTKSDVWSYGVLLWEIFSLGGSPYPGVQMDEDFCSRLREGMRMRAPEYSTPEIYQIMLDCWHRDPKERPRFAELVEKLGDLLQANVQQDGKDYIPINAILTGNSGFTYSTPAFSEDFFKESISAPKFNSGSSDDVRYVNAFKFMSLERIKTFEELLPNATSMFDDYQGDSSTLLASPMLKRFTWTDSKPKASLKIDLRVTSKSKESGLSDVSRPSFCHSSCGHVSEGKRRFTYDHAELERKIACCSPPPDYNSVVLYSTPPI
Mast/stem cell growth factor receptor Kit, sequence (P10721 whole entry): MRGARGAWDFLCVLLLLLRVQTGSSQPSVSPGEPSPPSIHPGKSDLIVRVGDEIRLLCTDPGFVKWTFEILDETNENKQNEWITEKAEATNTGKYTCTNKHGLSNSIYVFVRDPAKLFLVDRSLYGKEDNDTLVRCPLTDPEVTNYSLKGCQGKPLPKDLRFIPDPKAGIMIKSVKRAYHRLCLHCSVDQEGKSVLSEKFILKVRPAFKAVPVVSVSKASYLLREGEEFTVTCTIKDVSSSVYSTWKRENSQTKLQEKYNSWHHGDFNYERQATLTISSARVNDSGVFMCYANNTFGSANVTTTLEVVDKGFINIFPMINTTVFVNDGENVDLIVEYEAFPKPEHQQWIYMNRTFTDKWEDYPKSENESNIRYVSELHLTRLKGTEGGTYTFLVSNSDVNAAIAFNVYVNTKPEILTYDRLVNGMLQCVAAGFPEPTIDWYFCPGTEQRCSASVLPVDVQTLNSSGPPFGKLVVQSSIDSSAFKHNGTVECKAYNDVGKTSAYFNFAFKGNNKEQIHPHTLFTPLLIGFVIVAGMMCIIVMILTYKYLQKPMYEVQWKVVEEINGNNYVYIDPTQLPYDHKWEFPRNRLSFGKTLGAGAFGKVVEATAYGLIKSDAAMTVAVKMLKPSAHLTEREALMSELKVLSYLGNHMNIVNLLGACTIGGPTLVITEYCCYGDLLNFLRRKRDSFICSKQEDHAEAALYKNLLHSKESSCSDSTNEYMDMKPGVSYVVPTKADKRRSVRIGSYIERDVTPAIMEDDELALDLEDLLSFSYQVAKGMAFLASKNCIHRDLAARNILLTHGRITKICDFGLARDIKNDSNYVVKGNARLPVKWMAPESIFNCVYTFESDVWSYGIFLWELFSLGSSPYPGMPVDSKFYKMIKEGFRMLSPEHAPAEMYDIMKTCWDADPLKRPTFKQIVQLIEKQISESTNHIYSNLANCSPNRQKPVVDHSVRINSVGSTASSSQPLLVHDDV
Angiopoietin-1 receptor, sequence (Q02763 whole entry): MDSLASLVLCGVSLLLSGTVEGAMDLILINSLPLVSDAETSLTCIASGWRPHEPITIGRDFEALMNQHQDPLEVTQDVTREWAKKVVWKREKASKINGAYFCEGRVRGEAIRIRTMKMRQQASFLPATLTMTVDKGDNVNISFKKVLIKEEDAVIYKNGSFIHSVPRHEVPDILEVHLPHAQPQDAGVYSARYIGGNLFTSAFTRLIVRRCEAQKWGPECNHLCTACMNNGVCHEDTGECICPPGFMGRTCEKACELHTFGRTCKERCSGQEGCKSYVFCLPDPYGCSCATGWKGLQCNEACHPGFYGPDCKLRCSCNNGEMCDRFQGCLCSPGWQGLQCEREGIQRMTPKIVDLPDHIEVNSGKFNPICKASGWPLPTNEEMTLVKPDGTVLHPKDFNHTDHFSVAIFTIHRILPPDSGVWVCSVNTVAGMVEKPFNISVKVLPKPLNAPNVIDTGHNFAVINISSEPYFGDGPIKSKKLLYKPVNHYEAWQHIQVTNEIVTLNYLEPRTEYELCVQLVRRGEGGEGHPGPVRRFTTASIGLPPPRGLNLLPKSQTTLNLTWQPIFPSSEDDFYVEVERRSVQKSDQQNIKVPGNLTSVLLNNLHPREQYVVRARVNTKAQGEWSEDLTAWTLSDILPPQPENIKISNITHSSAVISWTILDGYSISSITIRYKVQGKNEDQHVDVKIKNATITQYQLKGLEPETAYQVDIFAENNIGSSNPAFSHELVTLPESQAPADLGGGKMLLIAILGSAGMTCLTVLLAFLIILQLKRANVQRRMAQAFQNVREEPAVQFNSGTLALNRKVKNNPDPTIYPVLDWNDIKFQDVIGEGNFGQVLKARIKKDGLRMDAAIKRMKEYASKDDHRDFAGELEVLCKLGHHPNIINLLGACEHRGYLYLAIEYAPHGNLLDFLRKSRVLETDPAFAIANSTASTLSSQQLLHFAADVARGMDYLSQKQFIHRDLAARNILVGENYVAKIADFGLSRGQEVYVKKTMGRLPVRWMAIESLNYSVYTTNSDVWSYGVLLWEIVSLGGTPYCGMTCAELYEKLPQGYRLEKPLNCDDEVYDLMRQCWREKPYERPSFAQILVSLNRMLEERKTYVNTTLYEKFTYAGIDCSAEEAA
Proto-oncogene tyrosine-protein kinase Src, sequence (P12931 2-536 limits assumed): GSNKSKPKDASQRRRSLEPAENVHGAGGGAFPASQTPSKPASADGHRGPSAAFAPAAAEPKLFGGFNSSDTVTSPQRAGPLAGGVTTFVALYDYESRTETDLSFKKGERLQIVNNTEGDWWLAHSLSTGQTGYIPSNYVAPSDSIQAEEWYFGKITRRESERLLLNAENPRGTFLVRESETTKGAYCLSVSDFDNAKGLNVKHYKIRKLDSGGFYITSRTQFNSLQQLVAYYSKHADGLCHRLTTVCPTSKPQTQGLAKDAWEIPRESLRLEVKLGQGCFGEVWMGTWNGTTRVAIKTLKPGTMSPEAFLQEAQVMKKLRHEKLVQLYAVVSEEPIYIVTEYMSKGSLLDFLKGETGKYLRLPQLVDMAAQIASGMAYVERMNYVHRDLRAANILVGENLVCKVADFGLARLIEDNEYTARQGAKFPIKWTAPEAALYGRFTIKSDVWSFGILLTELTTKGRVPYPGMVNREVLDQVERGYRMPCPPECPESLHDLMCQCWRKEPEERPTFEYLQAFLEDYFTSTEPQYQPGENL

A word on the IC50: it is the point on the concentration scale where inhibition reaches its midpoint. A lower IC50 goes with higher potency. In general, AUC refers to concentration integrated over time. High values mean more exposure, low ones less exposure. For orientation: half-life means the time needed for the level to fall by half in the phase considered. A low value points to fast loss. In general, ED50 refers to the dose that gives a 50% effect, or the effect in half of the subjects. Low values mean greater potency, high ones weaker potency. As usually defined, the Vd is a proportionality between amount in the body and measured concentration, not a real space. Read a low Vd as confinement near the circulation. As a reminder, the clearance is a measure of how efficiently the substance is removed, as volume per time. Low values mean a low capacity for elimination, high ones a high capacity for elimination. For orientation: bioavailability means the share of a dose that reaches the circulation, judged against a reference dose that is usually intravenous. Read a low bioavailability as poor availability. As to `COc1ccc(-c2ccc(NC(=O)Nc3cccc(C(F)(F)F)c3)cc2)c2c(N)noc12`, the IC50 in data set [1] was 56 nM; in data set [2], 30 nM; in data set [3], 19 nM; against Angiopoietin-1 receptor, 270 nM; in [6] it was 3000 nM; in data set [7], greater than 50000 nM. Further, the IC50 is 16 nM in data set [10], 130 nM in data set [13], greater than 50000 nM in [14] and greater than 50000 nM in data set [15]. Further, the AUC in data set [4] worked out at 30.6 µM·h. This compound gave a half-life in data set [5] of 0.9 h. For the same compound, the 50% effect level in the data set on Mus musculus (ED50) was put at a dose of 2 mg/kg. Also, the Vd in [8] is 2.2 L/kg. Besides, the clearance in data set [9] is 28.3 mL/min/kg. In data set [11], this compound showed a bioavailability of 100%. Further, in data set [12], the AUC at 24 h stood at 13.2 µM·h. In the data set with HT-1080 [16], the inhibition in vivo at 10 mg/kg/day was 81%.
On to `Cc1ccc(F)c(NC(=O)Nc2ccc(-c3cccc4[nH]nc(N)c34)cc2)c1` [LINIFANIB], for which the clearance in data set [17] was 18.3 mL/min/kg. This compound also showed a median effective dose (ED50) in the data set with Mus musculus of 0.4 mg/kg. Further, in data set [18], the distribution volume (Vd) was 2.7 L/kg. Further, the inhibition in vivo at 30 mg/kg/day in the data set on HT-1080 [19] is 85%. Further, the exposure (AUC) at 24 h in data set [20] worked out at 19.1 µM·h. The concentration for half-maximal inhibition (IC50) in data set [14] was greater than 50000 nM. This compound gave a half-life in [21] of 1.7 h.
